Experimental data: PMC10135050, “Neutralizing Carbapenem Resistance by Co-Administering Meropenem with Novel β-Lactam-Metallo-β-Lactamase Inhibitors” (Antibiotics, 2023)

What was measured:
[1] = parameters: method as in PMID 32179522; details: cited from earlier work
[2] = parameters: method as in PMID 26849010, PMID 32903882; details: cited from earlier work
[3] = in vivo; cited from earlier work
[4] = biological target: T1, Recombinant human glyoxylase II (Glo2) (Homo sapiens, UniProt Q16775); assay: Non-specific binding to zinc in non-MBLs, glyoxylase II activity; assay type: biochemical; details: 50–500 µM
T1 construct: purchased BioVision Inc., Waltham, MA, USA
Text: Metal chelators are known to suffer from off-target specificity and as a result have been criticized as potential MBLIs in vivo [44].
The methodology has been previously described. EDTA (purchased from Merck KGaA, Darmstadt, Germany) was included as a positive control.

Question: With `CN(C[C@H](O)[C@@H](O)[C@H](O)[C@H](O)CO)C(=O)c1ccc(CN(Cc2ccccn2)Cc2ccccn2)nc1` [ZN148] as the compound, how does the “Decrease in the bacterial load in vivo” value [1] read?
Answer: The value was “approximately 3 log10 units”.

Question: For `COC(=O)C(CC(=O)N[C@@H]1C(=O)N2C(C(=O)O)=C(C[n+]3ccccc3)CS[C@H]12)N1CCN(CC(=O)O)CCN(CC(=O)O)CC1` (some centres unmarked) [BP1], which “Decrease in the bacterial load in vivo” value [1] is on record?
Answer: Its value is “approximately 3 log10 units”.

Question: Which Cytotoxicity [2] does the source give for `c1ccc(CN(CCN(Cc2ccccn2)Cc2ccccn2)Cc2ccccn2)nc1` [TPEN, N,N,N′,N′-Tetrakis (2-Pyridylmethyl) Ethylenediamine] here?
Answer: Its Cytotoxicity is “cytotoxicity”.

Question: For `O=C(O)CN1CCN(CC(=O)O)CCN(CC(=O)O)CC1` [NOTA], which Bioavailability [3] is on record?
Answer: The Bioavailability was “poor bioavailability”.

Question: For `O=C(O)CN(CCN(CC(=O)O)CC(=O)O)CC(=O)O` [EDTA, reference compound], which “Glyoxylase II activity” value [4] is on record?
Answer: The value was “significantly reduced”.
